Data published in paper PMC5573538, “Contrasting effects of phosphatidylinositol 4,5‐bisphosphate on cloned TMEM16A and TMEM16B channels” (British Journal of Pharmacology, 2017).

Experiments:
[1] = target: T1, TMEM16B (Mus musculus, UniProt Q8CFW1); assay: inside-out patch clamp, excised patches from HEK-293T cells, +[…] mV, […] Ca2+ (partial current inhibition); type: biochemical; conditions: read-out: K i
T1 construct: gene Ano2; mouse TMEM16B isoform A, expressed in HEK-293T cells
T1 sequence (Q8CFW1 1-1002): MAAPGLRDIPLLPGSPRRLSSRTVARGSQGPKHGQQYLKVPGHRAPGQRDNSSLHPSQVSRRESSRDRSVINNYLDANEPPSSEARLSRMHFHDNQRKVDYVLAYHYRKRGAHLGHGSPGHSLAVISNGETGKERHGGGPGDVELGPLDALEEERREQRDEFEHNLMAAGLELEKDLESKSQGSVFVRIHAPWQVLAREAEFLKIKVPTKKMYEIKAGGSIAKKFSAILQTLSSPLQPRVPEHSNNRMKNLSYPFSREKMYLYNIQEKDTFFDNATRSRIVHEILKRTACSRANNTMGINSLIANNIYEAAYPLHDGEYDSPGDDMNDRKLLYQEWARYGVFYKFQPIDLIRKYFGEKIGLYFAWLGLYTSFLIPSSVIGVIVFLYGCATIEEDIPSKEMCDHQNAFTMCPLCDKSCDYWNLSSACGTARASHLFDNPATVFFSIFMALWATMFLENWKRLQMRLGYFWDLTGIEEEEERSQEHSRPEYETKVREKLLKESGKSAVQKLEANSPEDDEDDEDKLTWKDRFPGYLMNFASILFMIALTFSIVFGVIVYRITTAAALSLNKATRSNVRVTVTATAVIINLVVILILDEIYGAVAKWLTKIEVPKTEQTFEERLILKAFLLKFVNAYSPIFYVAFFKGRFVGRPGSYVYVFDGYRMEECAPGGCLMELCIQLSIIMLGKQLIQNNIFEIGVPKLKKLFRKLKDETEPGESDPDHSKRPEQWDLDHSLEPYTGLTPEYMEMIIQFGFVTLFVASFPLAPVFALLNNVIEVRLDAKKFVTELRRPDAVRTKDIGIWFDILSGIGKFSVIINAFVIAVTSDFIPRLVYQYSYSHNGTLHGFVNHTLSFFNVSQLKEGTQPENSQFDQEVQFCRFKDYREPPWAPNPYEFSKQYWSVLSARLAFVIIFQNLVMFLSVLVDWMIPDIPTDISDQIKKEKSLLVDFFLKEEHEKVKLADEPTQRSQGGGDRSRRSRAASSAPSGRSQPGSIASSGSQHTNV

[2] = target: T2, TMEM16A (Mus musculus, UniProt Q8BHY3); assay: inside-out patch clamp, excised patches from HEK-293T cells, +[…] mV, […] Ca2+ (current activation); type: biochemical; conditions: read-out: K a
T2 construct: gene Ano1; mouse TMEM16A isoform (ac), expressed in HEK-293T cells
T2 sequence (Q8BHY3 1-960): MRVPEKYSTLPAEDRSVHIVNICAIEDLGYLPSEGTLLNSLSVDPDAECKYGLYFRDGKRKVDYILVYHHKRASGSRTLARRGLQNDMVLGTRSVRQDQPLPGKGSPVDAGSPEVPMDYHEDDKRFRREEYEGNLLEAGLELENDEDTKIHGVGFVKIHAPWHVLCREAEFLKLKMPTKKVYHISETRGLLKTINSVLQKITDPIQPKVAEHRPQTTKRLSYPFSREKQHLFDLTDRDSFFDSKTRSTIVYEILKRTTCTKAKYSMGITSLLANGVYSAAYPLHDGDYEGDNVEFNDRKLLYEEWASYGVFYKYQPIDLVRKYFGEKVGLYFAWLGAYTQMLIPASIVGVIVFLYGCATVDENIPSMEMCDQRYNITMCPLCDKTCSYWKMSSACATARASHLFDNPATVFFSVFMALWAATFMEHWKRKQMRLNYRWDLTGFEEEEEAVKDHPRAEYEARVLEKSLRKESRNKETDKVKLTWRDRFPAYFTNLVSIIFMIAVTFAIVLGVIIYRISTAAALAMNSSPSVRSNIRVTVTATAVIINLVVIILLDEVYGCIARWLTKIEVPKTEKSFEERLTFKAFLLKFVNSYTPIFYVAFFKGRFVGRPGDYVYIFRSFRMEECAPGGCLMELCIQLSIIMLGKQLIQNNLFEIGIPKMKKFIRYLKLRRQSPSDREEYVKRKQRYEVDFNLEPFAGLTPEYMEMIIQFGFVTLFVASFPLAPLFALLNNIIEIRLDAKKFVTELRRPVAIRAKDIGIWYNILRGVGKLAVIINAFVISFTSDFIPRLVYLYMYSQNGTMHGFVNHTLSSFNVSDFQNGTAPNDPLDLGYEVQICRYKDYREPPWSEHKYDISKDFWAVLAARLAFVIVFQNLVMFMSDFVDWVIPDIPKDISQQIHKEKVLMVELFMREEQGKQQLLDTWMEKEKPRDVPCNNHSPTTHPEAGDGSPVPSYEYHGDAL

IC50 [1]: 46 ± 2 µM | EC50 [2]: 53 ± 9 µM
SMILES: CCCCCCCC(=O)OC[C@H](COP(=O)(O)O[C@@H]1[C@H](O)[C@H](O)[C@@H](OP(=O)(O)O)[C@H](OP(=O)(O)O)[C@H]1O)OC(=O)CCCCCCC [diC8‐PIP2]
